Converted amounts (≈) assume the structure as drawn. Like-named read-outs stand apart in the source and are kept apart here.

We go through 6 molecules from PMC11325505, “Nitrogen-Containing Flavonoids—Preparation and Biological Activity” (ACS Omega, 2024).

In assay [1] the test system is interleukin 6 (IL-6) production by RAW 264.7 stimulated by LPS. Kind of assay: Anti-inflammatory activity: IL-6 production by LPS-stimulated macrophages. Type of assay: cell-based, Murine. Conditions: Mus musculus, RAW264.7; LPS-stimulated RAW 264.7; average of four repetitions ± SEM. The method, then:
(§1) The anti-inflammatory activity of flavonoids was evaluated as their ability to decrease the production of signaling molecules that mediate inflammation, such as nitric oxide (NO), tumor necrosis factor (TNF-α), and interleukin 6 (IL-6), in LPS-stimulated macrophages.
(§2) The anti-inflammatory activity of the tested flavonoids was determined as the ability to reduce the production of nitric oxide (NO), tumor necrosis factor (TNF-α), and interleukin 6 (IL-6) by RAW 264.7 stimulated by LPS, as previously described.[39],[40] Briefly, 1 × 10^6 cells/mL was seeded into the 96-well plate (100 μL/well). After 48 h, LPS (100 ng/mL) and the samples (3–100 μM) were added to the MEM medium. After 24 h, the medium was mixed with Griess reagent (0.04 g/mL) at a 1:1 ratio. The absorbance was measured after 15 min at 540 nm. Cell viability was determined using the resazurin assay.
(§3) To determine TNF-α levels, cells were precultivated with the tested compounds for 24 h. After 2 h of incubation with LPS, the medium was diluted 1:10 with ELISA diluent. To determine the level of IL-6, cells were cultivated for 6 h with LPS and the tested compounds. Cytokine production was determined using an uncoated ELISA performed according to the manufacturer’s instructions.

The test system of assay [2] is human dermal fibroblasts (HDF). Kind of assay: Cytotoxicity (resazurin assay), fibroblasts. The format is cell-based. The following applies: 72 h incubation, resazurin, average of three repetitions ± SEM, read-out: HDF IC50 (concentration that halved the viability). The method, then:
(§4) The cytotoxicity of the prepared derivatives was evaluated by their ability to decrease the viability of immortalized human keratinocytes (HaCaT) and human dermal fibroblasts (HDF).
(§5) 100 μL of cell suspension containing 10^5 cells/mL was pipetted into a 96-well plate. After 24 h incubation, the tested compounds were added in the concentration range 12.5–200 μM. After 72 h incubation, the cell viability was tested by standard resazurin assay.[41] Briefly, the cells were washed with PBS and incubated with 100 μL of resazurin solution (0.025 mg/mL) for 2 h. The fluorescence was measured at a wavelength of 560 nm excitation/590 nm emission.
A general note: Alamar Blue is a resazurin reagent that responds to reducing activity.

Assay [3] concerns immortalized human keratinocytes (HaCaT). Kind of assay: Cytotoxicity (resazurin assay), keratinocytes. Type of assay: cell-based. Conditions: 72 h incubation, resazurin, average of three repetitions ± SEM, read-out: HaCaT IC50 (concentration that halved the viability). The protocol:
as §4, §5

For assay [4], the system named is tumor necrosis factor (TNF-α) production by RAW 264.7 stimulated by LPS. Description: Anti-inflammatory activity: TNF-α production by LPS-stimulated macrophages. Type of assay: cell-based, Murine. The following applies: Mus musculus, RAW264.7; LPS-stimulated RAW 264.7; average of four repetitions ± SEM; read-out: TNFα production IC50. The protocol: as §1, §2, §3

Assay [5] deals with nitric oxide (NO) production by RAW 264.7 stimulated by LPS. Kind of assay: Anti-inflammatory activity: NO production by LPS-stimulated macrophages. Type of assay: cell-based, Murine. The following applies: Mus musculus, RAW264.7; LPS-stimulated RAW 264.7; average of four repetitions ± SEM. The method, then:
as §1, §2

The next assay relates to RAW 264.7 cells. Description: Cellular antioxidant activity (CAA). Type of assay: cell-based, Murine. The following applies: Mus musculus, RAW264.7, macrophages RAW 264.7; average of four repetitions ± standard error of the mean. The method, then:
To evaluate the antioxidant activity of the prepared derivatives and the respective parent compounds, cellular antioxidant activity (CAA) was measured in macrophages. Compared to other in vitro antioxidant assays, this method provides partial information about the uptake and metabolism of the compounds, because, in this assay, they must first enter the cell to exert antioxidant activity.[31] […] Derivatization of quercetin at C-8 with 4-fluoroaniline (5) increased the antioxidant activity of quercetin by 1.7-fold. […] The concentration of these derivatives required to halve the cellular radicals decreased 1.5-fold compared to luteolin.
Cellular antioxidant capacity was evaluated as previously described.[31],[39] Briefly, 100 μL of RAW 264.7 cells with a density corresponding to 1 × 10^6 cells/mL were split into 96-well plates. After 24 h, cells were washed with PBS, and DMEM supplemented with DCFH-DA (0.0125 mg/mL) was added to each well together with the tested samples in the concentration range of 1.5–200 μM. After 1 h incubation in a CO2 incubator, the medium was replaced with AAPH solution (0.16 mg/mL in PBS), and fluorescence was immediately recorded (ex./em. 485/540 nm) for 2 h in 5 min intervals.

The next assay relates to S. aureus CCM 4223. Kind of assay: Antibacterial activity, antibiotic-sensitive strain. Type of assay: cell-based. Conditions: Staphylococcus aureus, CCM4223, three repetitions ± SEM.
Another assay has as its system S. aureus MRSA 9. Kind of assay: Antibacterial activity, multidrug-resistant strain. Type of assay: cell-based. The following applies: for IC50: Staphylococcus aureus, MRSA, multidrug-resistant strain, three repetitions ± SEM; for effect of the antibiotic alone on the multidrug-resistant clinical strain: breakpoint concentrations (1 mg/L). The method, then:
(§6) To evaluate the ability to modulate bacterial resistance, the tested flavonoids themselves cannot exert antimicrobial activity; therefore, the nontoxic concentration was used, as indicated in Table S5. Clinically relevant antibiotics were selected at breakpoint concentrations for susceptibility testing according to the European Committee on Antimicrobial Susceptibility Testing (EUCAST, version 11.0). […] Flavonoids and their derivatives (from 1 μM to the highest nontoxic concentration) were used in combination with the breakpoint concentration of the antibiotics. After coincubation, the minimum inhibitory concentration (MIC) of flavonoids inhibiting the visible growth of bacteria was determined (Table 2).
(§7) Sensitization of multidrug-resistant clinical bacterial strains was performed according to ref[15]. Antibiotic cutoff concentration was chosen according to the European Committee on Antimicrobial Susceptibility Testing (EUCAST, Clinical breakpoints–bacteria, ver. 11.0). The 200 μM concentration of the derivatives was chosen as the highest test concentration. The absorbance detected at 600 nm was then used to estimate the number of viable cells after 24 h of incubation at 37 °C and 120 rpm.
(§8) Experiments were performed with the respective number of replicates indicated in each figure/table. MIC was determined as IC70. Both IC70 and IC50 values were calculated using the following nonlinear regression in the software GraphPad Prism: […]

The subject of assay [6] is Staphylococcus aureus MRSA 9. Description: Modulation of antibiotic-resistant phenotype (flavonoid plus breakpoint concentration of antibiotic). The format is cell-based. Conditions: for minimum inhibitory concentration (MIC) in the presence of erythromycin: erythromycin at breakpoint concentration 1 mg/L; for minimum inhibitory concentration (MIC) in the presence of erythromycin / minimum inhibitory concentration (MIC) in the presence of gentamicin: MIC determined as IC70, three repetitions ± SEM; for minimum inhibitory concentration (MIC) in the presence of gentamicin: gentamicin at breakpoint concentration 1 mg/L. The protocol:
as §6, §7, §8

In another assay the test system is MRSA 3596. Kind of assay: Mode of antimicrobial action with erythromycin or gentamicin, ermA- and aadD-positive strain. Type of assay: cell-based, S. aureus. Conditions: MRSA 3596 (aadD).
From the text: Erythromycin is a macrolide antibiotic that inhibits proteosynthesis by binding to the 50S subunit of the ribosome. In Staphylococcus species, resistance to erythromycin is associated with the presence of methyltransferases (encoded by erm genes) that alter the ribosomal target site. Another typical mechanism of resistance to erythromycin is the presence of an ATP-dependent efflux pump encoded by the msr(A) gene or a major facilitator superfamily (MFS) pump encoded by the lmrS gene. Both efflux pumps reduce the concentration of erythromycin in the cell below the therapeutic dose by transporting it across the membrane to the extracellular space. Another erythromycin resistance gene is the mph(C) gene, the product of which is a phosphotransferase that alters the structure of macrolide antibiotics. To elucidate the mechanism of erythromycin resistance modulation in S. aureus, further tests were performed with the strains MRSA 331 and MRSA 3596, which inactivate erythromycin via a single mechanism (ermC and ermA, respectively). […] Therefore, if the activity was not strain-specific, it would be necessary to consider the effect of the derivatives on this pump (Table 3).
(§9) Among the mechanisms of resistance to gentamicin previously described in S. aureus, the presence of enzymes that alter the structure of aminoglycosides is crucial. These enzymes can transfer nucleotides, phosphates, or acetyls to various −OH or −NH2 groups of gentamicin, preventing its subsequent interaction with the cellular target, i.e., the 30S ribosomal subunit. The bifunctional aminoglycoside-modifying enzyme with acetylation and phosphotransferase activities encoded by the gene aac(6’)/aph(2’), 4′,4″ adenyltransferase encoded by the aadD gene, and aminoglycoside O-phosphotransferase encoded by the gene aph(3′) are the most important.[37] […] For this reason, further testing continued using strains MRSA 3596 and MRSA 1584, which inactivate gentamicin only by a single mechanism (aadD and aac(6’)-aph(2’’), respectively).
as §7, §8

Another assay has as its system MRSA 1584. Kind of assay: Mode of antimicrobial action with gentamicin, aac(6')/aph(2')-positive strain. Type of assay: cell-based, Staphylococcus aureus.
From the text: as §9, §7, §8

Turning to `COc1ccc(Nc2c(O)cc(O)c3c(=O)c(O)c(-c4ccc(O)c(O)c4)oc23)cc1` [compound 6, 2-(3,4-Dihydroxyphenyl)-8-(4-methoxyanilino)-3,5,7-trihydroxy-4H–1-benzopyran-4-one], the IC50 in assay [1] is 32.3 ± 2.3 µM; in assay [2] (Homo sapiens, Fibroblast, 72 h), 79.9 ± 1.5 µM; in assay [3] (Homo sapiens, HaCaT, 72 h), 45.2 ± 3.5 µM; in assay [4] it was more than 50 µM; in assay [5] it was 52.3 ± 2.3 µM; in the assay on RAW 264.7 cells it was 7.5 ± 0.7 µM. The figures for the IC50 with S. aureus CCM 4223 and with S. aureus MRSA 9 were 44 ± 0.1 µM and 138 ± 1.2 µM, respectively. Besides, in assay [6] (Staphylococcus aureus, MRSA, with gentamicin 1 mg/L, maximum concentration used (200 μM), read-out: maximum concentration used inhibited bacterial growth to), the inhibition at 200 µM stood at 50.7%. Moreover, the “minimum inhibitory concentration (MIC) in the presence of erythromycin” value in assay [6] is more than 200 µM. In addition, in [6], the “minimum inhibitory concentration (MIC) in the presence of gentamicin” value is >200 ^note 2 μM.

For `CC[C@H]1OC(=O)[C@H](C)[C@@H](O[C@H]2C[C@@](C)(OC)[C@@H](O)[C@H](C)O2)[C@H](C)[C@@H](O[C@@H]2O[C@H](C)C[C@H](N(C)C)[C@H]2O)[C@](C)(O)C[C@@H](C)C(=O)[C@H](C)[C@@H](O)[C@]1(C)O` [Erythromycin, reference compound], in the assay on S. aureus MRSA 9, the “effect of the antibiotic alone on the multidrug-resistant clinical strain” value is recorded as “did not affect”.

For `CNC(C)C1CCC(N)C(OC2C(N)CC(N)C(OC3OCC(C)(O)C(NC)C3O)C2O)O1` (stereo not shown) [gentamicin, reference compound], the “effect of the antibiotic alone on the multidrug-resistant clinical strain” value in the assay with S. aureus MRSA 9 is recorded as “did not affect”.

For `COc1cc(Nc2c(O)cc(O)c3c(=O)c(O)c(-c4ccc(O)c(O)c4)oc23)cc(OC)c1` [compound 9, 2-(3,4-Dihydroxyphenyl)-8-(3,5-dimethoxyanilino)-3,5,7-trihydroxy-4H–1-benzopyran-4-one], the IC50 in assay [1] is more than 50 µM; in assay [2] (Homo sapiens, Fibroblast, 72 h), 76 ± 3 µM; in [3] (Homo sapiens, HaCaT, 72 h), 56.9 ± 1.9 µM; in assay [4], more than 50 µM; in assay [5], 26.6 ± 0.4 µM; with RAW 264.7 cells it was 5.7 ± 1 µM. The IC50 in the assay on S. aureus CCM 4223 and in the assay with S. aureus MRSA 9 was more than 200 µM throughout. The “minimum inhibitory concentration (MIC) in the presence of erythromycin” value in [6] was more than 200 µM. In assay [6], the “minimum inhibitory concentration (MIC) in the presence of gentamicin” value was more than 200 µM.

In the case of `O=c1c(O)c(-c2ccc(O)c(O)c2)oc2c(Nc3ccccc3)c(O)cc(O)c12` [compound 7, 2-(3,4-Dihydroxyphenyl)-8-(anilino)-3,5,7-trihydroxy-4H–1-benzopyran-4-one], the IC50 in [1] is 12.9 ± 0.2 µM; in assay [2] (Homo sapiens, Fibroblast, 72 h), 115 ± 1.2 µM; in [3] (Homo sapiens, HaCaT, 72 h), 102 ± 1.5 µM; in [4], more than 100 µM; in assay [5], 34.4 ± 0.2 µM; in the assay with RAW 264.7 cells, 5.5 ± 0.4 µM. The figures for the IC50 in the assay on S. aureus CCM 4223 and in the assay with S. aureus MRSA 9 were 32.7 ± 0.7 µM and 70 ± 2 µM, respectively. For the same molecule, the “MIC, Gentamicin [1 mg/L] yes” value in the assay on MRSA 3596 (with gentamicin 1 mg/L) is on record as more than 200 µM; against MRSA 1584 (MRSA 1584 (aac(6')/aph(2')), with gentamicin 1 mg/L), 31.9 ± 2.5 µM (≈ 12.5 µg/mL). In addition, the MIC was more than 200 µM with MRSA 3596 (Staphylococcus aureus, 24 h, read-out: MIC, Gentamicin [1 mg/L] no, without gentamicin, Table S6) and 29.9 ± 1.2 µM (≈ 11.8 µg/mL) with MRSA 1584 (Staphylococcus aureus, 24 h, read-out: MIC, Gentamicin [1 mg/L] no, MRSA 1584, without gentamicin). Further, the “effect (mode of action with gentamicin)” value in the assay on MRSA 1584 (MRSA 1584) is on record as “indifferent (> 1 to < 2 indicates indifference)”. For the same molecule, the “FIC (Fractional Inhibitory Concentration Index)” value with MRSA 1584 (MRSA 1584, with gentamicin) is on record as 1.07 ± 0.13. Further, the “minimum inhibitory concentration (MIC) in the presence of erythromycin” value in assay [6] was more than 200 µM. For the same molecule, the “minimum inhibitory concentration (MIC) in the presence of gentamicin” value in assay [6] was determined as 43.8 ± 1.6 µM.

For the molecule `COc1cccc2c1C(=O)c1c(O)c3c(c(O)c1C2=O)C[C@@](O)(C(=O)CO)C[C@@H]3O[C@H]1C[C@H](N)[C@H](O)[C@H](C)O1` [Doxorubicin, reference compound], the IC50 is less than 1 µM in assay [2] (listed as doxorubicin), 0.19 ± 0.01 µM in [2], less than 1 µM in [3] (listed as doxorubicin) and 0.42 ± 0.03 µM in [3].
